Experimental data reported in US11858878B2, “Gemini surfactant composition and method for treating subterranean rock” (KING FAHD UNIVERSITY OF PETROLEUM AND MINERALS, priority 2018, dated 2024).

Tests used:
[1] = Surface tension measurements by pendant drop method in water (cmc and surface properties); format: physicochemical; conditions: for Amin (nominal surface area per molecule) / Γmax × 10^6 (highest surface access at the air-water interface): air-water interface; for πcmc (ability to lower the surface tension of water) / γcmc (surface tension at cmc) / cmc (critical micelle concentration) / surface tension at all investigated concentrations (rank among surfactants): water; for γcmc (surface tension at cmc) / cmc (critical micelle concentration): pendant drop; for cmc (critical micelle concentration): intersection of two lines in plot of surface tension versus concentration; for surface tension at all investigated concentrations (rank among surfactants): FIGS. 9 and 10
Protocol: Surface Properties. Surface tensions were identified with the help of pendant drop method at 20° C. using Biolin Scientific Attension instrument. Water was used as a solvent for all surface tension experiments. The reported data points of all surface tension measurements are average equilibrium values. The critical micelle concentration (cmc) was measured from the intersection point of two lines in the plot of surface tension versus concentration.
Surface Tension Measurements. […] The surface properties can be related to the different chain length, spacer length, spacer rigidity, and to the presence of different counterions in the gemini surfactants.
The gemini surfactant ability to lower the surface tension of water (πcmc), highest surface access (rmax) at the interface of air-water, as well as nominal surface area per molecule (Amin) was given in Table 1. The method used to calculate these properties was also given in our previous publication; Hussain S S, Animashaun M A, Kamal M S, Ullah N, Hussein I A, Sultan A S (2016) Synthesis, Characterization and Surface Properties of Amidosulfobetaine Surfactants Bearing Odd-Number Hydrophobic Tail. J Surfactants Deterg 19 (2):413-420, incorporated herein by reference in its entirety.

[2] = Long-term thermal stability: aging of aqueous solutions, followed by NMR and FTIR; format: physicochemical; conditions: aqueous solution, sealed tube, 90° C., 10 days
Protocol: Long-Term Thermal Stability. Long-term thermal stability was assessed using a novel approach based on an aging technique. Aqueous solutions of gemini surfactants (1)-(6) were aged in a sealed tube for 10 days at 90° C. NMR (^1H, ^13C) and FTIR instruments were used to identify the changes in the structure of the surfactants after aging.
The short-term and long-term thermal stability of the synthesized gemini surfactants (1)-(6) were investigated. […] (FIG. 2). The long-term thermal stability of the gemini surfactants (1)-(6) was examined using a novel approach based on aging technique where the aqueous solutions of surfactants were aged in a sealed tube at 90° C. for 10 days. NMR (^1H, ^13C) and FTIR instruments were used to study the change in the structure of the surfactants after aging at a different period. […]
Similarly, the olefinic protons in the spacer group of 10 days aged sample of gemini surfactants 1 (FIG. 3) were also detected. […]
According to ^13C NMR spectra of the 10 days aged samples of gemini surfactants (1) and (6)(FIGS. 4 and 6), the methyl [—(CH2)n—CH3)] and methylene carbon in hydrophobic tail of gemini surfactants (1) and (6) were clearly identified. […] The olefinic carbon in hydrophobic tail of gemini surfactant (6) (FIG. 6) as well as the olefinic carbon in spacer group of gemini surfactant 1 (FIG. 4) were also detected. […]

[3] = aqueous solution; cited from earlier work

Structure (SMILES)	Amin (nominal surface area per molecule) [1]	Γmax × 10^6 (highest surface access at the air-water interface) [1]	πcmc (ability to lower the surface tension of water) [1]	γcmc (surface tension at cmc) [1]	cmc (critical micelle concentration) [1]	long-term thermal stability (structure change by NMR, FTIR after aging) [2]	surface tension at all investigated concentrations (rank among surfactants) [1]	temperature of prolonged heating that causes decomposition [3]
CCCCCCCCCCCC(=O)NCCC[N+](C)(C)C/C=C/C[N+](C)(C)CCCNC(=O)CCCCCCCCCCC.[Br-].[Br-] [Surfactant 1]	0.91 nm^2	1.81 mol m^−2	35.77 mN m^−1	36.23 mN m^−1	0.000256 mol/L	no structural changes occurred		
CCCCCCCCCCCC(=O)NCCC[N+](C)(C)C/C=C\C[N+](C)(C)CCCNC(=O)CCCCCCCCCCC.[Cl-].[Cl-] [Surfactant 2]	1.05 nm^2	1.60 mol m^−2	33.88 mN m^−1	38.12 mN m^−1			highest surface tension	
CCCCCCCC/C=C\CCCCCCCC(=O)NCCC[N+](C)(C)C/C=C/C[N+](C)(C)CCCNC(=O)CCCCCCC/C=C\CCCCCCCC.[Br-].[Br-] [Surfactant 3]	0.86 nm^2	1.92 mol m^−2	36.33 mN m^−1	35.67 mN m^−1	0.000158 mol/L			
CCCCCCCC/C=C\CCCCCCCC(=O)NCCC[N+](C)(C)C/C=C\C[N+](C)(C)CCCNC(=O)CCCCCCC/C=C\CCCCCCCC.[Cl-].[Cl-] [Surfactant 4]	1.01 nm^2	1.64 mol m^−2	34.77 mN m^−1	37.23 mN m^−1	0.000291 mol/L			
CCCCCCCC/C=C\CCCCCCCC(=O)NCCC[N+](C)(C)CCCC[N+](C)(C)CCCNC(=O)CCCCCCC/C=C\CCCCCCCC.[Br-].[Br-] [Surfactant 5]	0.73 nm^2	2.26 mol m^−2	39.08 mN m^−1	32.92 mN m^−1	0.000105 mol/L			
CCCCCCCC/C=C\CCCCCCCC(=O)NCCC[N+](C)(C)CCCCCC[N+](C)(C)CCCNC(=O)CCCCCCC/C=C\CCCCCCCC.[Br-].[Br-] [Surfactant 6]	0.70 nm^2	2.38 mol m^−2	41.66 mN m^−1	30.34 mN m^−1	7.7e-05 mol/L	no structural changes occurred	least surface tension	
CCCCCCCCCCCCOS(=O)(=O)[O-].[Na+] [sodium dodecyl sulfate (SDS), sodium dodecyl sulfate]								≥ 40 °C
